The record followed here is the NIST ThermoML archive (doi:10.1016/j.jct.2017.02.009).

± gives the expanded uncertainty stated by the source.

What is called mass density is mass per unit of volume. As usually defined, the viscosity is the internal friction of a fluid under shear.

For series [1] the following is noted: 100 kPa, Liquid; for mass density: Vibrating tube method; for viscosity: Capillary tube (Ostwald / Ubbelohde) method.
Series [2] can be described thus: xn = mol fraction of the nth substance listed. The conditions noted are these: 100 kPa, Liquid, x1 = 1; for mass density: Vibrating tube method.

In the case of `C[S+](C)[O-]` [dimethyl sulfoxide], the mass density in series [1] (293.15 K) is recorded as 1100.2 ± 1 kg/m3; in series [1] (298.15 K), 1095.2 ± 1 kg/m3; in series [1] (303.15 K), 1090.2 ± 1 kg/m3; in series [1] (313.15 K), 1080.2 ± 1 kg/m3. In series [1] (298.15 K), the viscosity amounted to 1.985 ± 0.025 mPa·s.

With `C[S+](C)[O-]` [dimethyl sulfoxide] + O=C1CCCO1, the mass density in series [2] (293.15 K) came to 1100.2 ± 1 kg/m3; in series [2] (298.15 K), 1095.2 ± 1 kg/m3; in series [2] (303.15 K), 1090.2 ± 1 kg/m3; in series [2] (313.15 K), 1080.2 ± 1 kg/m3. For the same compound, the viscosity in series [2] (298.15 K, Capillary tube (Ostwald / Ubbelohde) method) is listed as 1.985 ± 0.025 mPa·s.

`O=C1CCCO1` [γ-butyrolactone]: the mass density in series [1] (293.15 K) was found to be 1129.4 ± 1 kg/m3; in series [1] (298.15 K), 1124.5 ± 1 kg/m3; in series [1] (303.15 K), 1119.6 ± 1 kg/m3; in series [1] (313.15 K), 1109.8 ± 1 kg/m3. Also, the viscosity in series [1] (298.15 K) was 1.72 ± 0.024 mPa·s.
